PMC6627698, “Redesigning Arenicin-1, an Antimicrobial Peptide from the Marine Polychaeta Arenicola marina, by Strand Rearrangement or Branching, Substitution of Specific Residues, and Backbone Linearization or Cyclization” (Marine Drugs, 2019)
Residues, ends and D or L forms follow the SMILES beside them. *: point of attachment. Cam = NC(=O)C*

Legend:
S. aureus c.i. = type: cell-based, Staphylococcus aureus; conditions: 18 h
Text: (§1) E. coli ML35p, Listeria monocytogenes EGD, methicillin-resistant Staphylococcus aureus (MRSA) ATCC 33591 were kindly provided by Prof. Robert Lehrer (University of California, Los Angeles, CA, USA); E. coli ATCC 25922, E. coli M15, Pseudomonas aeruginosa ATCC 27853, S. aureus ATCC 25923 were provided by Dr. Elena Ermolenko (Institute of Experimental Medicine, St-Petersburg, Russia); drug-resistant clinical isolates were provided by Prof. Gennadiy Afinogenov (Saint Petersburg State University, Russia); S. aureus 710A has been described previously. The following clinical isolates of bacteria were used: P.s aeruginosa resistant to aztreonam, ceftazidime, cefotaxime (obtained from the urine of a patient with cystitis), Acinetobacter baumannii resistant to meropenem (from an infected wound); Staphylococcus intermedius (from an infected wound caused by a dog bite) resistant to ciprofloxacin, cefuroxime, clindamycin, erythromycin, rifampin, gentamicin, benzylpenicillin, oxacillin.
(§2) This assay was applied to determine the MIC, according to the guidelines of the Clinical and Laboratory Standards Institute, using Mueller Hinton (MH) Broth. We prepared 2x stocks of peptides and serially diluted them in sterile PBS instead of Mueller Hinton Broth, so that the treatment of the bacteria with the peptides was carried out in a medium containing 50% of MH and 50% of PBS, as described. The overnight cultures of each strain were transferred to fresh MH media and further incubated to obtain a mid-logarithmic-growth-phase culture of bacteria. The absorbance of each bacterial suspension was measured at 620 nm, and bacteria were then diluted to approximately 2 × 10^5 CFU/mL. Then, 50 µL of the suspensions were mixed with 50 µL of the peptide dilutions in the wells of a microtiter plate (pre-treated for 1 h at 37 °C with 0.2% bovine serum albumin (BSA) in water, sterilized by filtration, to diminish the non-specific binding of the peptides to the plastic surfaces).

MRSA ATCC 33591 = type: cell-based, Staphylococcus aureus; conditions: ATCC 33591, 18 h
Text: as §1, §2

S. aureus ATCC 25923 = type: cell-based, Staphylococcus aureus; conditions: ATCC 25923, 18 h
Text: as §1, §2

[1] = tested on: Staphylococcus intermidius; type: cell-based, Staphylococcus intermedius; conditions: 18 h
Text: as §1, §2

[2] = tested on: human erythroleukemia K-562 cells; type: cell-based; conditions: 24 h
Experimental: The standard MTT ((3-(4,5-Dimethylthiazol-2-yl)-2,5-diphenyltetrazolium bromide) test was used for the examination of the cytotoxic activity of AMPs towards human erithroleukemia cells K-562. The cells were purchased from Biolot (Saint Petersburg, Russia) and were grown in RPMI 1640 medium (Biolot, Saint Petersburg, Russia) supplemented with glutamine and 10% FCS. Before the experiment, the culturing medium was replaced with serum-free RPMI 1640. Serial dilutions of the peptides in RPMI were plated in sterile 96-well microplates, and the target cells were dispensed to the microplates (10^5 cells/well in RPMI 1640). The plates were incubated for 24 h at 37 °C under 5% CO2. Cell-free media and cells incubated without peptides served as controls. Four hours before the incubation ended, MTT in PBS (5 mg/mL) was added to each well. After the incubation was stopped by adding isopropanol/ 0.04 M HCl, the optical density was measured at 540 nm, subtracting the background absorbance at 690 nm. Toxicity was determined by nonlinear regression analysis of the corresponding dose–response curves using the Sigma Plot 11 program to calculate the IC50 values (the concentration of the test substance that reduced the OD540 capacity by 50%).

[3] = tested on: set of Gram-negative and Gram-positive bacteria, including drug-resistant clinical isolates; type: cell-based; conditions: 12 strains; median MICs used; MIC > 16 µM taken as 32 µM
Experimental: To obtain a global assessment of the effect on antimicrobial activity, the geometric mean of the MIC (G-MIC) was calculated, and from this, the overall improvement or impoverishment with respect to arenicin-1. In general, inverting the symmetry or decreasing the charge had detrimental effects.
The overall activity against a set of tested bacterial strains was determined by way of the commonly used geometric mean of measured MIC values. […] At the same time, the geometric mean can still discriminate antimicrobial agents showing minor variations in activity; in other words, it has a better “resolution” than the median MIC (MIC50). Some mathematical basics for choosing the geometric mean for antimicrobial activity comparison are further discussed in the Supplementary Chapter S3.

E. coli ATCC 25922 = type: cell-based, Escherichia coli; conditions: ATCC 25922, 18 h
Text: as §1, §2

E. coli M15 = type: cell-based, Escherichia coli; conditions: M15, 18 h
Text: as §1, §2

[4] = tested on: Acinetobacter baumanii c.i.; type: cell-based, Acinetobacter baumannii; conditions: 18 h
Text: as §1, §2

[5] = tested on: Staphylococcus aureus 710A; type: cell-based; conditions: 18 h
Text: as §1, §2

[6] = tested on: Pseudomonas aeruginosa ATCC 27853; type: cell-based; conditions: ATCC 27853, 18 h
Text: as §1, §2

[7] = tested on: Listeria monocytogenes EGD; type: cell-based; conditions: 18 h
Text: as §1, §2

Escherichia coli ML35p = type: cell-based; conditions: broth microdilution, 50% Mueller Hinton broth / 50% PBS, 18 h at 37 °C, median of 3–5 experiments in triplicates
Text: as §1, §2

P. aeruginosa c.i. = type: cell-based, Pseudomonas aeruginosa; conditions: 18 h
Text: as §1, §2

SMILES	Minimal Inhibitory Concentrations (MIC) (S. aureus c.i.) [µM]	Minimal Inhibitory Concentrations (MIC) (MRSA ATCC 33591) [µM]	Minimal Inhibitory Concentrations (MIC) (S. aureus ATCC 25923) [µM]	Minimal Inhibitory Concentrations (MIC) [1] [µM]	IC50 [2] [µM]	G-MIC (geometric mean of all determined MICs) [3] [µM]	Minimal Inhibitory Concentrations (MIC) (E. coli ATCC 25922) [µM]	Minimal Inhibitory Concentrations (MIC) (E. coli M15) [µM]	Minimal Inhibitory Concentrations (MIC) [4] [µM]	Minimal Inhibitory Concentrations (MIC) [5] [µM]	Minimal Inhibitory Concentrations (MIC) [6] [µM]	Minimal Inhibitory Concentrations (MIC) [7] [µM]	Minimal Inhibitory Concentrations (MIC) (Escherichia coli ML35p) [µM]	Minimal Inhibitory Concentrations (MIC) (P. aeruginosa c.i.) [µM]
CC(C)C[C@@H]1NC(=O)[C@H](C(C)C)NC(=O)CNC(=O)[C@H](CCCNC(=N)N)NC(=O)[C@H](C(C)C)NC(=O)[C@H](CCCNC(=N)N)NC(=O)[C@H](C(C)C)NC(=O)[C@H](CCCNC(=N)N)NC(=O)[C@H](Cc2ccc(O)cc2)NC(=O)[C@H](CCCNC(=N)N)NC(=O)[C@H](CCCNC(=N)N)NC(=O)[C@@H](NC(=O)[C@H](Cc2c[nH]c3ccccc23)NC(=O)[C@@H](N)CCCNC(=N)N)CSSC[C@@H](C(=O)N[C@@H](Cc2c[nH]c3ccccc23)C(=O)O)NC(=O)[C@H](C(C)C)NC(=O)[C@H](Cc2ccc(O)cc2)NC(=O)[C@H](C)NC(=O)[C@H](Cc2ccc(O)cc2)NC(=O)[C@H](C(C)C)NC1=O [ARin-s] (HELM PEPTIDE1{R.W.C.R.R.Y.R.V.R.V.R.G.V.L.V.Y.A.Y.V.C.W}$PEPTIDE1,PEPTIDE1,3:R3-20:R3$$$V2.0; N-terminus assumed)	>16	>16	16	>16	37.7	≥12.8	8	8	16	16	4 to 8	2	4 to 8	>16
CC(C)C[C@H](NC(=O)[C@@H](NC(=O)CNC(=O)[C@H](CCCNC(=N)N)NC(=O)[C@@H](NC(=O)[C@H](CCCNC(=N)N)NC(=O)[C@@H](NC(=O)[C@H](Cc1ccc(O)cc1)NC(=O)[C@H](C)NC(=O)[C@H](Cc1ccc(O)cc1)NC(=O)[C@@H](NC(=O)[C@H](CSCC(N)=O)NC(=O)[C@H](Cc1c[nH]c2ccccc12)NC(=O)[C@@H](N)CCCNC(=N)N)C(C)C)C(C)C)C(C)C)C(C)C)C(=O)N[C@H](C(=O)N[C@@H](CCCNC(=N)N)C(=O)N[C@@H](Cc1ccc(O)cc1)C(=O)N[C@@H](CCCNC(=N)N)C(=O)N[C@@H](CCCNC(=N)N)C(=O)N[C@@H](CSCC(N)=O)C(=O)N[C@@H](Cc1c[nH]c2ccccc12)C(=O)O)C(C)C [ARlin] (H-RWC(Cam)VYAYVRVRGVLVRYRRC(Cam)W-OH; N-terminus assumed)	8 to 16	4	2	8	> 40	3.1	2	2	4	2	2	2	1 to 2	4 to 8
CC(C)C[C@@H]1NC(=O)[C@H](C(C)C)NC(=O)[C@H](CCCNC(=N)N)NC(=O)[C@H](Cc2ccc(O)cc2)NC(=O)[C@H](CCCNC(=N)N)NC(=O)[C@H](CCCNC(=N)N)NC(=O)[C@@H](NC(=O)[C@@H](N)Cc2c[nH]c3ccccc23)CSSC[C@H](NC(=O)[C@@H](N)Cc2c[nH]c3ccccc23)C(=O)N[C@@H](CCCNC(=N)N)C(=O)N[C@@H](CCCNC(=N)N)C(=O)N[C@@H](Cc2ccc(O)cc2)C(=O)N[C@@H](CCCNC(=N)N)C(=O)N[C@@H](C(C)C)C(=O)N[C@@H](CC(C)C)C(=O)N[C@@H](C(C)C)C(=O)N[C@H](C(=O)N[C@@H](CN)C(N)=O)CCCNC(=O)[C@H](C(C)C)NC1=O [ARs-C-B] (HELM PEPTIDE1{W.C.R.R.Y.R.V.L.V.[Orn].[NC[C@H](N[*:1])C(=O)[*:2]].[am]}|PEPTIDE2{W.C.R.R.Y.R.V.L.V}$PEPTIDE1,PEPTIDE2,2:R3-2:R3|PEPTIDE1,PEPTIDE2,10:R3-9:R2$$$V2.0; N-terminus assumed)	4 to 8	8	4	4	39	4.4	4	8	8 to 16	4	1	2	1 to 2	16
CC(C)C[C@@H]1NC(=O)[C@H](C(C)C)NC(=O)CNC(=O)[C@H](CCCNC(=N)N)NC(=O)[C@H](C(C)C)NC(=O)[C@H](CC(C)C)NC(=O)[C@H](C(C)C)NC(=O)[C@H](CCCNC(=N)N)NC(=O)[C@H](Cc2ccc(O)cc2)NC(=O)[C@H](CCCNC(=N)N)NC(=O)[C@H](CCCNC(=N)N)NC(=O)[C@@H](NC(=O)[C@@H](N)Cc2c[nH]c3ccccc23)CSSC[C@@H](C(=O)N[C@@H](Cc2c[nH]c3ccccc23)C(=O)O)NC(=O)[C@H](CCCNC(=N)N)NC(=O)[C@H](CCCNC(=N)N)NC(=O)[C@H](Cc2ccc(O)cc2)NC(=O)[C@H](CCCNC(=N)N)NC(=O)[C@H](C(C)C)NC1=O [ARs-C] (HELM PEPTIDE1{W.C.R.R.Y.R.V.L.V.R.G.V.L.V.R.Y.R.R.C.W}$PEPTIDE1,PEPTIDE1,2:R3-19:R3$$$V2.0; N-terminus assumed)	16	4 to 8	4	8	11.6	3.2	2	2	2	2 to 4	1	1	1	16
